Experimental data: US8168596B2, “Use of cycloartane compounds for treating arthritis” (NuLiv Holding Inc., priority 2008, dated 2012)

How the values were obtained:
[1] = system: TIMP1 mRNA; test: RT-PCR of TIMP1 mRNA expression in SW1353 cells; assay type: cell-based, human; details: for TIMP1 mRNA expression after AS4 treatment followed by PMA: then 100 ng/mL PMA 24 h; for TIMP mRNA expression after only AS4 treatment: 24 h, no PMA
Procedure: First of all, the interaction between TIMP1 mRNA expression and MMP1 mRNA expression in human SW1353 cell line after only AS4 treatment was studied. […] The SW1353 cells were then collected for RT-PCR analysis.
In a second testing, the effect of AS4 treatment followed by PMA treatment was also studied. The SW1353 cells were first treated with astragaloside IV (AS4) at a concentration of 0.01 μM, 0.1 μM, or 1 μM, followed by incubation for 24 hours. Then PMA was added into each well, followed by incubation for 24 hours. These SW1353 cells were also collected for RT-PCR analysis in the end of the second testing.
Total RNAs were isolated from the cultured human cells using NucleoSpin RNAII Kit (Macherey-Nagel Inc., PA, USA). Five μg of RNA was reverse transcribed in a total 20 μl transcription mixture. The reaction tube containing primers (oligo(dT)), RNA, 10 mM dNTP Mix, and DEPC-treated water was first incubated at 65° C. for 5 minutes. Eight μl master reaction mixture containing 4 μl 5× cDNA synthesis Buffer, 1 μl 0.1 M DTT, 1 μl RNase OUT™ (40U/μl), 1 μl DEPC-Treated water, and 1 μl SuperScript™II was then added into the reaction tube. The reaction tube was then incubated at 50° C. for 60 minutes, followed by incubation at 85° C. for 5 minutes. Finally, 1 μl RNase H was added at 37° C. and the reaction tube was incubated for 20 minutes. The resulting cDNA was further amplified by PCR. The relevant primers for the following PCR reaction were listed below.
(ii) the TIMP1 forward primer is 5′-AATTCCGACCTCGTCATCAG-3′ (SEQ ID NO: 3) and the TIMP1 reverse primer is 5′-TGCAGTTTTCCAGCAATGAG-3′ (SEQ ID NO: 4); and
In addition, the PCR reaction of MMP1 cDNA was preformed as follows: 95° C. for 5 min, followed by 35 cycles of 94° C. for 30 sec, 60° C. for 30 sec, and 72° C. for 30 sec, and then 72° C. for 10 min followed by maintaining at 4° C. Similarly, the PCR reaction of TIMP1 cDNA was performed as follows: 94° C. for 5 min, followed by 35 cycles of 94° C. for 30 sec, 60° C. for 30 sec, and 72° C. for 30 sec, and then 72° C. for 10 min followed by maintaining at 4° C. The PCR reaction of GAPDH cDNA was performed as follows: 94° C. for 5 min, followed by 18 cycles of 94° C. for 30 sec, 54° C. for 30 sec, and 72° C. for 30 sec, and then 72° C. for 30 sec followed by maintaining at 4° C. These PCR products were analyzed by electrophoresis on a 1.5% gel.

[2] = system: MMP-2; test: Zymography of MMP-2 from pre-treated SW1353 cells; assay type: cell-based, human; details: PMA-pre-treated SW1353; 0.1 μM, 24 h
Procedure: At the beginning of the experiment, the cells were pre-treated with 100 ng/mL PMA or 10 ng/mL IL-1β for 24 hours. The cells were then treated with 0.1 μM Dexamethasone, various astragaloside compounds (0.1 μM) or extracts of Astragalus membranaceous (1 μg/mL) at indicated dosages for another 24 hours. For control sample, 0.1% DMSO was used as a negative control for these experiments. The conditioned culture mediums were then centrifuged, 2-fold concentrated and collected for assay of collagens or MMPs secreted into the culture medium.
The proteolytic activities of MMPs from SW1353 cells were measured essentially as described previously (Circ Res, 1999; 85:906-911). The cells were lysed in lysis buffer (1% Triton X-100, 50 mM Tris-Cl, pH 7.4, 180 mM NaCl, 1 mM EDTA). The samples were measured for their protein concentration using the bicinchoninic acid (BCA) protein assay kit as described. Samples of concentrated conditioned medium and cell lysates were mixed with non-reducing electrophoresis loading buffer and subjected to electrophoresis under non-reducing conditions. The electrophoresis was carried out on a 10% SDS-PAGE co-polymerized with 2 mg/mL gelatin or casein (Sigma, St. Louis, Mo. USA). For zymographic analysis of pro-MMP-2 and activated MMP-2, the total 20 μg of culture medium were used for electrophoresis. Following electrophoresis, renaturation of the proteins was achieved by incubating the gels twice in 25 g/L Triton X-100 at room temperature for 10 min. Subsequently the gels were incubated in 50 mM Tris-HCl, pH 7.5 containing 0.2 M NaCl, 0.02% Brij35 and 10 mM CaCl2 at 37° C. for 18 hours. After the gels were stained with Coomassie Brilliant Blue R-250 and destained, zones of proteolytic activities became visible as transparent bands in the stained gel. In order to obtain higher sensitivity, the gels were further destained in a solution of 1% Triton X-100 (1 to 2 hours). This procedure increased the signal-to-noise ratio, allowing the visualization of faint gelatinase bands at 92 kDa, 125 kDa and greater than 200 kDa. Zymograms were read using a Molecular Dynamics (Sunnyvale, Calif., USA) computing laser densitometer with Image Quant software.

Which results are given for CC(C)(O)[C@@H]1CC[C@](C)([C@H]2[C@@H](O)C[C@@]3(C)[C@@H]4C[C@H](O[C@@H]5O[C@H](CO)[C@@H](O)[C@H](O)[C@H]5O)[C@H]5C(C)(C)[C@@H](O[C@@H]6OC[C@@H](O)[C@H](O)[C@H]6O)CC[C@@]56C[C@@]46CC[C@]23C)O1 [AS4, Astragaloside IV]?
TIMP1 mRNA expression after AS4 treatment followed by PMA ([1]; AS4 0.01 μM 24 h): 1.36; TIMP mRNA expression after only AS4 treatment ([1]; AS4 0.01 μM): 0.87; TIMP1 mRNA expression after AS4 treatment followed by PMA ([1]; AS4 0.1 μM 24 h): 1.34; TIMP mRNA expression after only AS4 treatment ([1]; AS4 0.1 μM): 0.90; TIMP1 mRNA expression after AS4 treatment followed by PMA ([1]; AS4 1 μM 24 h): 1.31; TIMP mRNA expression after only AS4 treatment ([1]; AS4 1 μM): 0.84; MMP-2, Zymography, relative to Ctrl 1.00 [2]: 1.01
